Test results from US20030004194A1, “Method for treating fibrotic diseases or other indications VI” (Alteon, Inc., priority 2001, published 2003).
Where a name gives a salt, the structure may show the parent alone.

Columns and labels:
Type IV collagen = experiment: In situ hybridization studies, Type IV collagen expression; type: in vivo
Text: (§1) Cardiovascular risk correlates more closely with the systolic and the pulse pressure than with the diastolic pressure. In diabetic patients, the cardiovascular risk profile of diabetic patients is strongly correlated to duration of diabetes, glycemic control and blood pressure. Structural matrix proteins contribute to the function of vessels and the heart, and changes in the physical behavior of cardiovascular walls are believed to be important determinants of circulatory function. In elderly individuals, the loss of compliance in the aorta leads to isolated systolic hypertension, which in turn expands the arterial wall and thereby diminishes the dynamic range of elasticity. Loss of compliance also results in the development of left ventricular hypertrophy.

[1] = test system: collagen in cardiovascular tissues; experiment: Mass of collagen in cardiovascular tissues after treatment; type: in vivo
Text: as §1

Phase IIa clinical trial = type: in vivo, human
Text: When the heart pumps blood into the vascular system, the ability of the arteries to expand helps to push blood through the body. When arteries become stiff, as they do in the natural process of aging, the ability of the arteries to expand is diminished and also has consequences for the heart. The heart has to work harder to pump the blood into the stiff arteries, and eventually hypertrophies (enlarges in size) to accomplish this. A hypertrophied heart is an inefficient pump, and is one of the disorders that leads to congestive heart failure. […] The potential clinical benefit of this is to lessen the effort that the heart must expend to push blood throughout the body. The effect is also believed to contribute to preventing hypertrophy and subsequent inefficiency of the heart, which inefficiency would contribute to congestive heart failure.
Atherosclerosis is a disease that involves deposition of blood lipids in plaque in the arteries throughout the body. In coronary arteries, accumulation of plaque progressively leads to reduced coronary flow, with occlusion of the arteries causing focal death of cardiac tissue (myocardial infarction, heart attack). If the amount of tissue that dies is large enough, death ensures. […] Reducing local deposits of plaque should eventually lessen the risk of myocardial infarction and death due to heart attacks.
Pulse pressure is the difference between systolic and diastolic blood pressure. In a young human, systolic pressure is typically 120 mm Hg and diastolic pressure is 80 mm Hg, resulting in a pulse pressure of 40 mm Hg. With age, in many individuals pulse pressure increases, largely due to the increase in systolic pressure that results from stiff vessel disease. In individuals with pulse pressure greater than 60 mm Hg there is an increased risk of death from cardiovascular morbidities. […] This decrease in pulse pressure was believed to be due primarily to the effect of the agent on lowering the systolic blood pressure.

[2] = Dog model for diabetes, ventricular elasticity; type: in vivo
Text: as §1

TGFbeta = experiment: In situ hybridization studies, TGFbeta expression; type: in vivo
Text: as §1

[3] = In vivo studies of vascular stiffening; conditions: in vivo studies in rodents, canines and in primates
Text: as §1

Cc1sc[n+](CC(=O)c2ccccc2)c1C [3-[2-phenyl-2-oxoethyl]-4,5-dimethyl-thiazolium salt]
expression of Type IV collagen (Type IV collagen): reduces the expression
mass of collagen in cardiovascular tissues [1]: reduction in the mass of collagen
stiffness of arteries, as measured by the ratio of stroke volume (ml) to pulse pressure (mm Hg) (Phase IIa clinical trial; Phase IIa clinical trial): showed an ability to reverse the stiffness of arteries
amount of circulating triglycerides (lipids) (Phase IIa clinical trial; Phase IIa trial): increased the amount of circulating triglycerides
pulse pressure (Phase IIa clinical trial; Phase IIa trial, elderly patients with pulse pressures greater than 60 mm Hg, statistically significant): reduced pulse pressure
end diastolic pressure (indicator of ventricular elasticity) [2]: returned to a value at about the mid-point between the disease impaired value and the value for control dogs
end diastolic volume (indicator of ventricular elasticity) [2]: returned to a value at about the mid-point between the disease impaired value and the value for control dogs
expression of TGFbeta (TGFbeta): reduces the expression
vascular stiffening [3]: substantially ameliorating vascular stiffening
